Reference: patent publication US20260240878A1, “PTP1B/TC-PTP DUAL INHIBITORS AND PROTEIN DEGRADERS” (Purdue Research Foundation, priority 2023, published 2026)
*1 amine or outer side, *2 acyl side, *3 side chain or, on linkers, in order; H or OH if unused. Where a SMILES comes first, the peptide text is derived from it. [ ]: non-standard residue; d: D form. The star is where a group is joined. NHBn(4-(4-Me-thiazol-5-yl)) = Cc1ncsc1-c1ccc(CN*)cc1; F2Pmp = N[C@@H](Cc1ccc(C(F)(F)P(=O)(O)O)cc1)C(=O)O; Phenylacetyl(4-OH,3-OMe) = COc1cc(CC(=O)*)ccc1O; Benzoyl(3-Br,4-Me) = Cc1ccc(C(=O)*)cc1Br; NH(CH2)9CO = O=C(CCCCCCCCCN[*:1])[*:2]; Hyp = O=C(O)[C@@H]1C[C@@H](O)CN1; dHyp = O=C(O)[C@H]1C[C@H](O)CN1; dTle = CC(C)(C)[C@@H](N)C(=O)O; Tle = CC(C)(C)[C@H](N)C(=O)O; 12Ado = NCCCCCCCCCCCC(=O)O; Ahp = NCCCCCCC(=O)O; Ava = NCCCCC(=O)O

Columns and labels:
TC-PTP [1] = molecular target: T1, TC-PTP (Homo sapiens, UniProt P17706); assay: Degradation assay in HEK293 cells (immunoblotting); format: cell-based; parameters: Degradation assay was conducted in HEK293 cells with 1 μM degrader and 24 hours incubation; endogenous in cells; host or cells: HEK293; settings: 1 μM degrader, 24 hours, read-out: % Protein Degradation TC-PTP
T1 sequence (P17706 1-415): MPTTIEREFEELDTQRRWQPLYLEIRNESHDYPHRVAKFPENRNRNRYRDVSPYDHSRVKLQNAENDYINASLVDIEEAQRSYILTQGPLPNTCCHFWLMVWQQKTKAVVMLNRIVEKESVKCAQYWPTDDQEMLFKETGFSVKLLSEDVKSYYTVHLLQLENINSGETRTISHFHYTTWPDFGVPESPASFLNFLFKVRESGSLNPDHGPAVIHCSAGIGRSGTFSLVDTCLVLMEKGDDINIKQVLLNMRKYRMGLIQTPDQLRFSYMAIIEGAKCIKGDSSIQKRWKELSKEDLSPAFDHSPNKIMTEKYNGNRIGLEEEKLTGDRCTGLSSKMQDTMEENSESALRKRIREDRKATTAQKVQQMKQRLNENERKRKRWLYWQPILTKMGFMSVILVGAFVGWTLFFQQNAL
Procedure: (§1) HEK293. MIAPaCa-2, HepG2, U2OS, H116, MEF, B16F10, and MC38 cells, were grown in DMEM, while Jurkat and H358 cells were grown in RPMI 1640 supplemented with 10% fetal bovine serum, penicillin (50 units/mL), and streptomycin (50 μg/mL) in a 37° C. incubator containing 5% CO2. 20 ng/ml human (Biolegend #713906) or mouse (Biolegend #714006) Interferon-γ were used for JAK/STAT pathway stimulation.
(§2) Tissues or cultured cells were lysed with ice-cold lysis buffer (50 mM Tris (pH 8.0, 150 mM NaCl, 10% Glycerol, 1% Triton-X-100) supplied with phosphatase inhibitor (Bimake) and protease inhibitor mixture (Roche Applied Science). Equal amounts of protein were resolved by SDS-PAGE, transferred to nitrocellulose membrane, and subjected to immunoblotting. Antibodies used in this study include anti-following proteins: pSTAT1^Tyr701 (Cell Signaling Technology #9167, 1:3000), GAPDH (Cell Signaling Technology #97166, 1:5000), pJAK1^Tyr1034/1035 (Cell Signaling Technology #74129, 1:1000), pJAK2^Tyr1007/1008 (Cell Signaling Technology #3776, 1:1000), TC-PTP (Abcam #ab180764, 1:3000). PTP1B (Abcam #ab244207, 1:1500).
(§3) Degradation assay was conducted in HEK293 cells with 1 μM degrader and 24 hours incubation.
(§4) The degradation assay was conducted in HEK293 cells with 0.2 μM degrader and 16 hours incubation.

PTP1B [2] = molecular target: T2, PTP1B (Homo sapiens, UniProt P18031); assay: Degradation assay in HEK293 cells (immunoblotting); format: cell-based; parameters: Degradation assay was conducted in HEK293 cells with 1 μM degrader and 24 hours incubation; endogenous in cells; host or cells: HEK293; settings: 1 μM degrader, 24 hours
T2 sequence (P18031 1-435): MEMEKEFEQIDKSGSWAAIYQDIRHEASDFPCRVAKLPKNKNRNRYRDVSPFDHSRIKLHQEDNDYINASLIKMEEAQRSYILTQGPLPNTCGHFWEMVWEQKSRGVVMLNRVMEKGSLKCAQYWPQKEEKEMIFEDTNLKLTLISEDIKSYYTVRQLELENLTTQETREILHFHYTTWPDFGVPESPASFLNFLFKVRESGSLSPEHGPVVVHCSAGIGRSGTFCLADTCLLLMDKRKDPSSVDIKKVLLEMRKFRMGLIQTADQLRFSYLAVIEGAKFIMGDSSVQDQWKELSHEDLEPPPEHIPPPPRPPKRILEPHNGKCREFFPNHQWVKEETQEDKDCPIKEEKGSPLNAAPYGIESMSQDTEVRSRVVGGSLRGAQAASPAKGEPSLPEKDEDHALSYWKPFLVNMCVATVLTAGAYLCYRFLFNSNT
Procedure: as §1, §2, §3, §4

TC-PTP [3] = molecular target: T1, TC-PTP; assay: PTP activity assay with pNPP substrate (IC50, Ki, mode of inhibition); format: biochemical; settings: for IC50: pNPP 2 mM, pH 7.0, 25° C., read-out: IC50, nM TC-PTP
Procedure: (§5) PTP activity was assayed using p-nitrophenyl phosphate (pNPP) as a substrate in DMG buffer (50 mM DMG. pH 7.0, 1 mM EDTA, 150 mM NaCl, 2 mM DTT, 0.1 mg/mL BSA) at 25° C. The assays were performed in 96-well plates. Normally, to determine the IC50 values, the reaction was initiated by the addition of enzyme (for PTP1B and TCPTP, the final concentration was 0.4 nM, for other PTPs, the final concentration was 10 nM) to a reaction mixture (0.2 mL) containing 2 mM (Km for the substrate) pNPP with various concentrations of inhibitors (see FIG. 1). The reaction rate was measured using a SpectraMax Plus 384 Microplate Spectrophotometer (Molecular Devices). Data were fitted using SigmaPlot Enzyme Kinetics Module (Systat Software, Inc.). To determine the mode of inhibition, the reactions were initiated by the addition of enzyme (final concentration for TC-PTP and PTP1B was 0.4 nM) to the reaction mixtures (0.2 mL) containing various concentrations of pNPP with different concentrations of the inhibitor. Data were fitted using SigmaPlot Enzyme Kinetics Module (Systat Software. Inc.).

PTP1B [4] = molecular target: T2, PTP1B; assay: as above; format: biochemical; settings: for IC50: pNPP 2 mM, pH 7.0, 25° C., read-out: IC50, nM PTP1B
Procedure: as §5

TC-PTP [5] = molecular target: T1, TC-PTP; assay: Degradation assay in HEK293 cells (immunoblotting); format: cell-based; parameters: endogenous in cells; host or cells: HEK293; settings: 0.2 μM degrader, 16 hours, read-out: % Protein Degradation TC-PTP
Procedure: as §1, §2, §3, §4

Compound | percent TC-PTP degradation at 1 µM (TC-PTP [1]) [%] | % Protein Degradation PTP1B (PTP1B [2]) [%] | IC50 (TC-PTP [3]) [nM] | IC50 (PTP1B [4]) [nM] | percent TC-PTP degradation at 0.2 µM (TC-PTP [5]) [%] | Ki (TC-PTP [3]; TC-PTP catalyzed pNPP hydrolysis) [nM] | Ki (PTP1B [4]; PTP1B-catalyzed pNPP hydrolysis) [nM]
COc1cc(CC(=O)N[C@@H](Cc2ccccc2)C(=O)N[C@@H](Cc2ccc(C(F)(F)P(=O)(O)O)cc2)C(=O)N[C@@H](CCCCNC(=O)c2ccc(C)c(Br)c2)C(=O)NCCCCC(=O)N[C@@H](C(=O)N2C[C@@H](O)C[C@@H]2C(=O)NCc2ccc(-c3scnc3C)cc2)C(C)(C)C)ccc1O [Compound 6, ((4-((S)-3-(((S)-6-(3-bromo-4-methylbenzamido)-1-((5-(((R)-1-((2R,4S)-4-hydroxy-2-((4-(4-methylthiazol-5-yl)benzyl)carbamoyl)pyrrolidin-1-yl)-3,3-dimethyl-1-oxobutan-2-yl)amino)-5-oxopentyl)amino)-1-oxohexan-2-yl)amino)-2-((S)-2-(2-(4-hydroxy-3-methoxyphenyl)acetamido)-3-phenylpropanamido)-3-oxopropyl)phenyl)difluoromethyl)phosphonic Acid] ({Phenylacetyl(4-OH,3-OMe)}-F[F2Pmp]K(Benzoyl(3-Br,4-Me))[Ava][dTle][dHyp]-{NHBn(4-(4-Me-thiazol-5-yl))}) | 58 | 53 | 34.3 ± 14.8 | 29.4 ± 2.1 |  |  | 
COc1cc(CC(=O)N[C@@H](Cc2ccccc2)C(=O)N[C@@H](Cc2ccc(C(F)(F)P(=O)(O)O)cc2)C(=O)N[C@@H](CCCCNC(=O)c2ccc(C)c(Br)c2)C(=O)NCCCCCCC(=O)N[C@@H](C(=O)N2C[C@@H](O)C[C@@H]2C(=O)NCc2ccc(-c3scnc3C)cc2)C(C)(C)C)ccc1O [Compound 10, ((4-((S)-3-(((S)-6-(3-bromo-4-methylbenzamido)-1-((7-(((R)-1-((2R,4S)-4-hydroxy-2-((4-(4-methylthiazol-5-yl)benzyl)carbamoyl)pyrrolidin-1-yl)-3,3-dimethyl-1-oxobutan-2-yl)amino)-7-oxoheptyl)amino)-1-oxohexan-2-yl)amino)-2-((S)-2-(2-(4-hydroxy-3-methoxyphenyl)acetamido)-3-phenylpropanamido)-3-oxopropyl)phenyl)difluoromethyl)phosphonic Acid] ({Phenylacetyl(4-OH,3-OMe)}-F[F2Pmp]K(Benzoyl(3-Br,4-Me))[Ahp][dTle][dHyp]-{NHBn(4-(4-Me-thiazol-5-yl))}) | 69 | 61 | 6.8 ± 0.6 | 7.4 ± 0.6 |  |  | 
COc1cc(CC(=O)N[C@@H](Cc2ccccc2)C(=O)N[C@@H](Cc2ccc(C(F)(F)P(=O)(O)O)cc2)C(=O)N[C@@H](CCCCNC(=O)c2ccc(C)c(Br)c2)C(=O)NCCCCCCCCCC(=O)N[C@H](C(=O)N2C[C@H](O)C[C@H]2C(=O)NCc2ccc(-c3scnc3C)cc2)C(C)(C)C)ccc1O [Compound 14, ((4-((S)-3-(((S)-6-(3-bromo-4-methylbenzamido)-1-((10-(((S)-1-((2S,4R)-4-hydroxy-2-((4-(4-methylthiazol-5-yl)benzyl)carbamoyl)pyrrolidin-1-yl)-3,3-dimethyl-1-oxobutan-2-yl)amino)-10-oxodecyl)amino)-1-oxohexan-2-yl)amino)-2-((S)-2-(2-(4-hydroxy-3-methoxyphenyl)acetamido)-3-phenylpropanamido)-3-oxopropyl)phenyl)difluoromethyl)phosphonic Acid] ({Phenylacetyl(4-OH,3-OMe)}-F[F2Pmp]K(Benzoyl(3-Br,4-Me))[NH(CH2)9CO][Tle][Hyp]-{NHBn(4-(4-Me-thiazol-5-yl))}) | 62 | 38 | 6.8 ± 0.3 | 10.3 ± 0.6 |  |  | 
COc1cc(CC(=O)N[C@@H](Cc2ccccc2)C(=O)N[C@@H](Cc2ccc(C(F)(F)P(=O)(O)O)cc2)C(=O)N[C@@H](CCCCNC(=O)c2ccc(C)c(Br)c2)C(=O)NCCCCCCCCCCCC(=O)N[C@H](C(=O)N2C[C@H](O)C[C@H]2C(=O)NCc2ccc(-c3scnc3C)cc2)C(C)(C)C)ccc1O [Compound 18, ((4-((S)-3-(((S)-6-(3-bromo-4-methylbenzamido)-1-((12-(((S)-1-((2S,4R)-4-hydroxy-2-((4-(4-methylthiazol-5-yl)benzyl)carbamoyl)pyrrolidin-1-yl)-3,3-dimethyl-1-oxobutan-2-yl)amino)-12-oxododecyl)amino)-1-oxohexan-2-yl)amino)-2-((S)-2-(2-(4-hydroxy-3-methoxyphenyl)acetamido)-3-phenylpropanamido)-3-oxopropyl)phenyl)difluoromethyl)phosphonic Acid] ({Phenylacetyl(4-OH,3-OMe)}-F[F2Pmp]K(Benzoyl(3-Br,4-Me))[12Ado][Tle][Hyp]-{NHBn(4-(4-Me-thiazol-5-yl))}) | 30 | 29 | 8.9 ± 0.6 | 22.3 ± 1.1 |  |  | 
COc1cc(CC(=O)N[C@@H](Cc2ccccc2)C(=O)N[C@@H](Cc2ccc(C(F)(F)P(=O)(O)O)cc2)C(=O)N[C@@H](CCCCNC(=O)c2ccc(C)c(Br)c2)C(N)=O)ccc1O [Example 7, ((4-((S)-3-(((S)-1-amino-6-(3-bromo-4-methylbenzamido)-1-oxohexan-2-yl)amino)-2-((S)-2-(2-(4-hydroxy-3-methoxyphenyl)acetamido)-3-phenylpropanamido)-3-oxopropyl)phenyl)difluoromethyl)phosphonic Acid] | 0 |  | 7.1 ± 0.4 | 4.7 ± 0.3 | 0 | 3.6 | 2.4
